Results: EP0537980A1, “Cyclohexaneacetic acid derivatives as inhibitors of fibrinogen-dependent blood platelet aggregation” (GLAXO GROUP LIMITED, priority 1991, dated 1993)
Where a name gives a salt, the structure may show the parent alone.

Each molecule was assayed on human gel filtered platelets (GFP) (assay: Inhibition of ADP-induced, fibrinogen-dependent blood platelet aggregation in human gel filtered platelets (GFP)). Conditions: fibrinogen 0.5mg/ml, compounds incubated 5 minutes at 37°C, ADP 1 x 10⁻⁵M, concentration required to produce 50% inhibition of platelet aggregation, read-out: IC₅₀.
Assay type: cell-based
Method: Inhibition of blood platelet aggregation by compounds of the invention was determined according to the following procedure. Citrated whole blood (1 part 3.8% trisodium citrate: 9 parts blood) was obtained from human volunteers, free of medication for at least 10 days prior to collection. The blood was incubated with 0.1mM aspirin and 0.05µM prostacyclin and then centrifuged at 1000g for 4 minutes (20°C). The supernatant platelet rich plasma (PRP) was further centrifuged at 1300g for 10 minutes (20°C) to sediment the platelets. The supernatant was discarded and the pellet washed with a physiological salt solution (HEPES 5mM, NaHCO₃ 12mM, NaCl 140mM, KH₂PO₄ 0.74mM, D-Glucose 5.6mM, KCl 2.82mM and BSA 20g/l, pH 7.4) to remove residual plasma. After washing, the pellet was resuspended in physiological salt solution and then applied to a sepharose CL-2B column, pre-equilibrated with physiological salt solution at room temperature. The platelets (GFP) eluted within the void volume and were diluted to approximately 300,000 platelets/µl in buffer. Purified human fibrinogen (Knight L.C. et al, 1981 Thromb. Haemostasis, 46(3), 593-596) was added to a final concentration of 0.5mg/ml together with Ca2+ and Mg2+ at 1mM and 0.5mM respectively. […] The potency of the compounds may be expressed as an IC₅₀ value, defined as the concentration of compound required to produce 50% inhibition of platelet aggregation.
For `N=C(N)c1ccc(N2CCN(C3CCC(O)(CC(=O)O)CC3)CC2)c(Br)c1` (stereo not drawn) [Example 2, cis-4-[4-[4-(Aminoiminomethyl)-2-bromophenyl]-1-piperazinyl]-1-hydroxycyclohexaneacetic acid, trifluoroacetate salt], the IC50 was 945 nM.
For `N=C(N)c1ncc(N2CCN(C3CCC(O)(CC(=O)O)CC3)CC2)cn1` (stereo not drawn) [Example 3, cis-4-[4-[2-(Aminoiminomethyl)-5-pyrimidinyl]-1-piperazinyl]-1-hydroxycyclohexaneacetic acid, trifluoroacetate salt], the IC50 was 543 nM.
In the case of `N=C(N)c1ccc(C2CCN(C3CCC(O)(CC(=O)O)CC3)CC2)cc1` (stereo not drawn) [Example 4, cis-4-[4-[4-(Aminoiminomethyl)phenyl]-1-piperidinyl]-1-hydroxycyclohexaneacetic acid, trifluoroacetate salt], the IC50 is reported as 13 nM.
For `N=C(N)c1ccc(N2CCN([C@H]3CC[C@@](O)(CC(=O)O)CC3)CC2)cn1` [Example 5, cis-4-[4-[2-(Aminoiminomethyl)-5-pyridinyl]-1-piperazinyl]-1-hydroxycyclohexaneacetic acid, trifluoroacetate salt], the IC50 was 220 nM.
In the case of `N=C(N)c1ccc(N2CCN(C3CCC(O)(CC(=O)O)CC3)CC2)c(-c2ccccc2)c1` (centres unmarked) [Example 6, trifluoroacetate salt], the IC50 is reported as 1550 nM.
